Laboratory results from patent US11208412B2 (DAEGU-GYEONGBUK MEDICAL INNOVATION FOUNDATION, priority 2017, dated 2021).

How the values were obtained:
Test in all cases: Kinase selectivity, DiscoverX scanMAX Kinase assay panel (% control)
Assay type in all cases: binding
[1] = biological target: T1, kinases of the scanMAX Kinase assay panel (Homo sapiens, UniProt O14976); settings: GAK; 1 uM
T1 construct: purchased DiscoverX Co. (contract measurement) scanMAX Kinase assay panel
T1 sequence (O14976 1-1311): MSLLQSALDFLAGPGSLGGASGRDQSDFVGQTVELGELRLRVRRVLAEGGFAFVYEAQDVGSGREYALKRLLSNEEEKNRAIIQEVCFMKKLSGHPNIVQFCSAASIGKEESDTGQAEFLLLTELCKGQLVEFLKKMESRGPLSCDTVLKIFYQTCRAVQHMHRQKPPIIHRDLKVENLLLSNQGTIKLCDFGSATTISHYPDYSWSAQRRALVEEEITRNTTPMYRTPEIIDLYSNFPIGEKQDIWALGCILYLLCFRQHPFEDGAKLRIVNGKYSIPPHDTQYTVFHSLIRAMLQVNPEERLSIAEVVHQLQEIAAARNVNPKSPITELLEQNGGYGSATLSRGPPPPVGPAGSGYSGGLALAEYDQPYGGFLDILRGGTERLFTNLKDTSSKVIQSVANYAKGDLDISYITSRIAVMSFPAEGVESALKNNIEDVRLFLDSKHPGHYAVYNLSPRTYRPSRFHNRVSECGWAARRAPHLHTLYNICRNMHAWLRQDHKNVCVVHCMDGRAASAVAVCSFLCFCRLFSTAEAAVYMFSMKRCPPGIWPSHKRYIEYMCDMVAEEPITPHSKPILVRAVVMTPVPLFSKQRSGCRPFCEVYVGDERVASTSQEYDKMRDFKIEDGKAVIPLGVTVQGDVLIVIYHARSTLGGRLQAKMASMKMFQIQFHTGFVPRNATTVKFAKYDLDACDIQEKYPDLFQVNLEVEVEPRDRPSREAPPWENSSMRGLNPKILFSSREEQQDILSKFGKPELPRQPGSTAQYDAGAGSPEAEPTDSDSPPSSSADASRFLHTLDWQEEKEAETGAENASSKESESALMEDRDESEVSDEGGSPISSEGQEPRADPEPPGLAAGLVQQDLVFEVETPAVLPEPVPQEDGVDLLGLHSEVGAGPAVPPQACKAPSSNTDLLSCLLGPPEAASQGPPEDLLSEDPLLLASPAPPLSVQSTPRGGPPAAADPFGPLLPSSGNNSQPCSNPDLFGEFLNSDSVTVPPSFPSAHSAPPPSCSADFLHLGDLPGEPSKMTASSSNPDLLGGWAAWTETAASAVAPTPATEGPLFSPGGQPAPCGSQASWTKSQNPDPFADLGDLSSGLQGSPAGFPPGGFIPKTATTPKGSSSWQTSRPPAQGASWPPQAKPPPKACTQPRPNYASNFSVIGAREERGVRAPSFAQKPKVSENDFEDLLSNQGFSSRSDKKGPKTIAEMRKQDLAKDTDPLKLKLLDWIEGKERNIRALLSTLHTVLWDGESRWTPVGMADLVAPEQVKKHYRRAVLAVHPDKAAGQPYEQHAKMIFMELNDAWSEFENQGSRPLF
How it was run: (§1)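 A 1 uM DMSO solution of compound was applied across the panel kinases, and results were expressed as % control relative to DMSO (100%) and a positive control (0%).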

[2] = biological target: T2, kinases of the scanMAX Kinase assay panel (Homo sapiens, UniProt P07949); settings: kinase RET; 1 uM in DMSO
T2 construct: purchased DiscoverX Co. (contract measurement) scanMAX Kinase assay panel
T2 sequence (P07949 29-1114): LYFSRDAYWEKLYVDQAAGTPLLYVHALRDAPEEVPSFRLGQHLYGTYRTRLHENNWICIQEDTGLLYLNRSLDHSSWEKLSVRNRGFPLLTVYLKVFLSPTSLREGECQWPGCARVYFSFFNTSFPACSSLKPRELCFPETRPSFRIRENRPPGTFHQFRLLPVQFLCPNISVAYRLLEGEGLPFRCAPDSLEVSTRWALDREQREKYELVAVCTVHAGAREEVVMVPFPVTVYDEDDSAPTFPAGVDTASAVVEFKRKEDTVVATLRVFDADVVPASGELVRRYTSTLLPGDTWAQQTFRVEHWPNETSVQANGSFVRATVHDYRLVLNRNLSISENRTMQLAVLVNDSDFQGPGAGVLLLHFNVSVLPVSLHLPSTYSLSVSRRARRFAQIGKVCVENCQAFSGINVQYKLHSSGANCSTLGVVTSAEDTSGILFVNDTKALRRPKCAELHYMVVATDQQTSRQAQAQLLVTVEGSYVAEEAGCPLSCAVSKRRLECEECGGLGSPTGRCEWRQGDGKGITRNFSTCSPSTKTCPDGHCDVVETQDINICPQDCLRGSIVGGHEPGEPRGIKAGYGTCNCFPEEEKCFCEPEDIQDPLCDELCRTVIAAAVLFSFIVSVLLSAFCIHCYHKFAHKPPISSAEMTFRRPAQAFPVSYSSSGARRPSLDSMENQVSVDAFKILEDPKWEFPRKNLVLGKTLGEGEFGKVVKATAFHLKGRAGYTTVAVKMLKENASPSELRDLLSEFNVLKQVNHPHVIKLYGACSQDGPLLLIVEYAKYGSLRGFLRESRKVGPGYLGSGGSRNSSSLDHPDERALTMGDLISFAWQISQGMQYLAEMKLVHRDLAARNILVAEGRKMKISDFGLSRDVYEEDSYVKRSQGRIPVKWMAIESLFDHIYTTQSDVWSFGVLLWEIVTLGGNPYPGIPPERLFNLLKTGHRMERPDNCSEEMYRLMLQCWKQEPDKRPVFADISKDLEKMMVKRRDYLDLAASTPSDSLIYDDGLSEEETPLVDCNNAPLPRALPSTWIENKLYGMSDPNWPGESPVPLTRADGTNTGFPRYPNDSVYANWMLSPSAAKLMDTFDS
How it was run: as §1

[3] = biological target: T3, kinases of the scanMAX Kinase assay panel (Homo sapiens, UniProt Q07002); settings: PCTK3; 1 uM
T3 construct: purchased DiscoverX Co. (contract measurement) scanMAX Kinase assay panel
T3 sequence (Q07002 whole entry): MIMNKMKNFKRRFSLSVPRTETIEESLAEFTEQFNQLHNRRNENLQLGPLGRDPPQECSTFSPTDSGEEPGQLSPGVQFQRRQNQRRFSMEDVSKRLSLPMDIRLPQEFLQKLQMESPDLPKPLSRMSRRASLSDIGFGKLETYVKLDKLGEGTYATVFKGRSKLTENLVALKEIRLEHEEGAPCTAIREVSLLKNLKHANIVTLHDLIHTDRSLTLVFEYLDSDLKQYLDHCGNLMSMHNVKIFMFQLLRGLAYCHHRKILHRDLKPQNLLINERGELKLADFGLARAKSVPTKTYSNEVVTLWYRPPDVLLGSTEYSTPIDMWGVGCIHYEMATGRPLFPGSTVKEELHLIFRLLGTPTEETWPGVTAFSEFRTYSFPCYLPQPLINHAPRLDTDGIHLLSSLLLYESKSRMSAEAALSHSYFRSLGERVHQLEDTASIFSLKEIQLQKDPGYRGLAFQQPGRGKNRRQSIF
How it was run: as §1

[4] = biological target: T4, kinases of the scanMAX Kinase assay panel (Homo sapiens, UniProt Q8TF76); settings: HASPIN; 1 uM
T4 construct: purchased DiscoverX Co. (contract measurement) scanMAX Kinase assay panel
T4 sequence (Q8TF76 1-798): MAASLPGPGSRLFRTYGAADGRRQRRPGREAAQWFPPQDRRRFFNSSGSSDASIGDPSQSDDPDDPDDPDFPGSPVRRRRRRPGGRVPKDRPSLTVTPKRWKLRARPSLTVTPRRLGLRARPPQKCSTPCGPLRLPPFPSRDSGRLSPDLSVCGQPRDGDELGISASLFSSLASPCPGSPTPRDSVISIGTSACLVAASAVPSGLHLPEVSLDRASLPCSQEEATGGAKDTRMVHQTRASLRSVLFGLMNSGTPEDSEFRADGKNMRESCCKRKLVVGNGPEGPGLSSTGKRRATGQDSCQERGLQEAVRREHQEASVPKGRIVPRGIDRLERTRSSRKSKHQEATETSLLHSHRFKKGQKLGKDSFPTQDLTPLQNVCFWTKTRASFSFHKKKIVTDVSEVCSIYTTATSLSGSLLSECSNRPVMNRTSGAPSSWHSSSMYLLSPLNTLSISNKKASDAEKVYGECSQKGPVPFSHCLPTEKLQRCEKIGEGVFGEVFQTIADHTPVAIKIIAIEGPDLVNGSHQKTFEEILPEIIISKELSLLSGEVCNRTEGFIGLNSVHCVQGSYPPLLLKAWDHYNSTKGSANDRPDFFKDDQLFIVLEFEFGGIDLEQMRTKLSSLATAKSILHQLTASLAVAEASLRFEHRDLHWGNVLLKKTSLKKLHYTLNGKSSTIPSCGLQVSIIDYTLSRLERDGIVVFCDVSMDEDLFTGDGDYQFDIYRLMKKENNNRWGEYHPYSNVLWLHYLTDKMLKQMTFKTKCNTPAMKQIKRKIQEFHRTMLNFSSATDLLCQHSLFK
How it was run: as §1

[5] = biological target: T5, kinases of the scanMAX Kinase assay panel (Homo sapiens, UniProt Q9Y2H1); settings: NDR2; 1 uM
T5 construct: purchased DiscoverX Co. (contract measurement) scanMAX Kinase assay panel
T5 sequence (Q9Y2H1 whole entry): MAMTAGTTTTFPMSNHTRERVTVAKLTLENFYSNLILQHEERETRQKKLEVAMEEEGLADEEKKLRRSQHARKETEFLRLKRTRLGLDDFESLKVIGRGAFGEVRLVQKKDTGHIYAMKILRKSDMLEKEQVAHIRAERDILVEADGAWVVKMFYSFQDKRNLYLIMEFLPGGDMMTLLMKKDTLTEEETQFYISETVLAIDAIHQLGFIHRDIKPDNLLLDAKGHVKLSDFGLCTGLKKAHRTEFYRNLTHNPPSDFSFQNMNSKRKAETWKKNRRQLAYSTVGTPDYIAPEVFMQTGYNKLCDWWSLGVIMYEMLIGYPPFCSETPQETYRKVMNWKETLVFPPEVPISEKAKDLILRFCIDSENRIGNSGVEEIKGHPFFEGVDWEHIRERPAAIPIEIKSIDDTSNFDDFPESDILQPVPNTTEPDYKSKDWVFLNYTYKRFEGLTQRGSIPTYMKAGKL
How it was run: as §1

CNc1nc(Nc2ccc(C(=O)N3CCOCC3)cc2OC)nc2[nH]cc(C#N)c12 [Example 1, 2-((2-methoxy-4-(morpholine-4-carbonyl)phenyl)amino)-4-(methylamino)-7H-pyrrolo[2,3-d]pyrimidine-5-carbonitrile]
remaining binding at 1 µM [1]: 11%
remaining binding at 1 µM [2]: 97%
remaining binding at 1 µM [3]: 96%
remaining binding at 1 µM [4]: 63%
remaining binding at 1 µM [5]: 98%

CC1(Nc2nc(Nc3cnn([C@H]4CCN(C5COC5)C[C@@H]4F)c3Cl)nc3[nH]cc(C#N)c23)CC1 [Example 52, 2-((5-chloro-1-((3S,4S)-3-fluoro-1-(oxetane-3-yl)piperidine-4-yl)-1H-pyrazole-4-yl)amino)((1-methylcyclopropyl)amino)-7H-pyrrolo[2,3-d]pyrimidine-5-carbonitrile]
remaining binding at 1 µM [1]: 5.8%
remaining binding at 1 µM [2]: 0%
remaining binding at 1 µM [3]: 81%
remaining binding at 1 µM [4]: 100%
remaining binding at 1 µM [5]: 31%

CCNc1nc(Nc2ccc(C(=O)N3CCC(N4CCOCC4)CC3)cc2OC)nc2[nH]cc(C(F)(F)F)c12 [Example 104, (4-((4-(ethylamino)-5-(trifluoromethyl)-7H-pyrrolo[2,3-d]pyrimidine-2-yl)amino)-3-methoxyphenyl)(4-morpholinopiperidine-1-yl)methanone]
remaining binding at 1 µM [1]: 1%
remaining binding at 1 µM [2]: 98%
remaining binding at 1 µM [3]: 94%
remaining binding at 1 µM [4]: 100%
remaining binding at 1 µM [5]: 100%
